Reference: US9458194B2, “Compounds useful in the treatment and/or care of the skin and their cosmetic or pharmaceutical compositions” (Lubrizol Advanced Materials, Inc., priority 2013, dated 2016)
Where “and” joins values, the source holds several entries; their conditions need not be identical. Identical values can stand only once.

Key:
[1] = test system: human fibulin-5 gene promoter; test: Luminescence assay of human fibulin-5 gene promoter activation (Firefly luciferase); assay type: cell-based; settings: 16-24 hours
Method: The effect of the compounds of the invention on the activity of the fibulin-5 and LOXL1 promoters was studied and compared to the levels of basal expression of the untreated cells (negative control) and with the effect of Interleukin-1β (IL-1β) in the same conditions.
Cells from an epithelial cell line doubly transfected with fibulin-5 and LOXL1 human promoters in which the luciferase gene is under the regulatory control of said promoters (4×10^4 cells/well) were seeded in a white plate and in a 96-well transparent plate, both treated with polylysine, and were incubated in Dulbecco's Modified Eagle Medium (DMEM-Glutamax™), with 10% of FBS, 1% Penicillin-Streptomycin (P/S), 1 mg/ml of Geneticin® (G418) and […] at 37° C. in at atmosphere with 5% CO2. After the incubation, the cells were incubated for 6 hours at 37° C. in at atmosphere with 5% CO2 with DMEM without serum. Then, this medium was removed and the cells were treated with different compounds at 0.1 mg/ml, 0.5 mg/ml, 1 mg/ml or 2 mg/mL in DMEM/1% FBS for 16-24 hours. As a positive control to activate the fibulin-5 and LOXL1 promoters 10 ng/ml of IL-1β were used and as a negative control untreated cells were used, just with DMEM/1% FBS. The incubations and treatments were carried out in parallel in the white plate and the transparent plate and in triplicate for each condition. After the treatment, the relative light units per second were determined (RLU/s) in the white plate by means of consecutive quantification of the activities of Firefly luciferase (fibulin-5 promoter) and Renilla luciferase (LOXL1 promoter), and the number of total cells/well in the transparent plate by means of staining with Crystal Violet (CV). To determine the Firefly and Renilla luciferase activities the Dual-Glo Luciferase Assay System kit by Promega was used. The cells were briefly lysed and the Firefly luciferase substrate was added. After incubating for 10 min at 25° C., the RLU/s were quantified by luminescence reader (Lumistar-BMG). Then the Firefly signal was extinguished and the Renilla luciferase substrate was added. After incubating for 5 min at 25° C., the RLU/s were quantified by the same luminescence reader. With regard to the determination of the total number of cells by Crystal Violet, the CV dyes the DNA of the cells and the quantity of dye taken by the cells can be measured in an absorbency reader at 630 nm (Multiskan Ascent). The color obtained is directly proportional to the total number of cells per well. The cells were briefly incubated with 0.05% CV plus 4% Formalin for 20 minutes and after several washes with Milli-Q water, the cells were left to dry for 1-2 hours and then 0.1 M of HCl was added for its immediate reading. The RLU/s of the luciferases corresponding to each promoter were normalized by the average of the total number of cells per condition. Three independent assays with 3 measurements per assay were carried out for Ac-L-Asp-L-Val-L-Lys-L-Tyr-OH at 0.1 mg/mL and 1 mg/mL. 1 assay with 3 measurements was carried out for the other compounds and concentrations.
The increase in the activity of the promoters with regard to the levels of expression of the negative control was determined.

[2] = test system: human dermal fibroblasts (HDFa); test: Gene expression profile of human dermal fibroblasts (microarray, GSEA); assay type: cell-based; settings: 0.05 mg/ml, 24 hours
Method: Adult human dermal fibroblasts (HDFa) were seeded (12.5×10^4 cells/vial T25 cm^2), and were incubated in complete medium 106 for 7 days at 37° C. in an atmosphere with 5% CO2. After the incubation, the cells were treated for 24 hours at 37° C. in an atmosphere with 5% CO2 with 0.05 mg/ml of the compound Ac-L-Asp-L-Val-L-Lys-L-Tyr-OH in complete medium 106 or in complete medium 106 as a negative control. The incubations and the treatments were carried out in duplicate for each condition.
After the treatments, RNA was extracted and purified, the quality and quantity was verified and the marking was carried out as was the hybridization of the samples in a human gene expression microarray (ASurePrint G3, Agilent). […] Next an evaluation of the genes by means of GSEA was carried out to encompass these genes according to their function/biological route. 24 hours after the treatments, the cells were lysed and the RNA was extracted and purified from each replica and each condition by means of the RNeasyPlus Mini kit by Qiagen. The lysed cells were briefly homogenized and the RNases were inactivated. The samples were passed through special RNA binding columns and after several microcentrifugation washes to eliminate contaminants and impurities, the purified RNA was eluted with 50 μl of ultrapure water. The purity, integrity and concentration of the RNA obtained were evaluated by means of spectrophotometry (Nanodrop) and with a bioanalyzer (Agilent Bioanalyzer).
The normalized values obtained with the treatment were compared with the normalized values obtained with the negative control to obtain genes with differential expression. […] The values obtained are also evaluated by means of GSEA (Gene Set Analysis Enrichment) to group together the genes with differential expression in terms of Gene Ontology and Biological Routes and the sets of genes with an expected proportion of incorrectly rejected null hypotheses were selected as significant (FDR) <25%. The results obtained are shown below in three different tables in which different families of genes are grouped together (collagen genes, genes involved in collagen synthesis and genes involved in cell adhesion).

Ac-L-Asp-L-Val-L-Lys-L-Tyr-OH (Ac-DVKY-OH)
Increase in the activity of the human promoter of the FIBULIN 5 gene with regard to the negative control ([1]; 0.1 mg/mL): 7.46%
Increase in the activity of the human promoter of the FIBULIN 5 gene with regard to the negative control ([1]; 1 mg/mL): 19% and 19.40%
Increase in the activity of the human promoter of the FIBULIN 5 gene with regard to the negative control ([1]; 2 mg/mL): 53.20%
% Expression induction ([2]; ACTN1 (Actinin, alpha 1)): 27.4%
% Expression induction ([2]; CAPNS1 (Calpain, small subunit 1)): 22.1%
% Expression induction ([2]; CAPNS2 (Calpain, small subunit 2)): 17.9%
% Expression induction ([2]; COL1A2 (Collagen, type-I, alpha 2)): 31.1%
% Expression induction ([2]; COL4A1 (Collagen, type-IV, alpha 1)): 18.9%
% Expression induction ([2]; COL4A2 (Collagen, type-IV, alpha 2)): 8.3%
% Expression induction ([2]; COL6A2 (Collagen, type-VI, alpha 2)): 16.0%
% Expression induction ([2]; COL6A3 (Collagen, type-VI, alpha 3)): 18.6%
% Expression induction ([2]; COL11A1 (Collagen, type-XI, alpha 1)): 7.2%
% Expression induction ([2]; COL14A1 (Collagen, type-XIV, alpha 1)): 36.1%
% Expression induction ([2]; COL22A1 (Collagen, type-XXII, alpha 1)): 7.7%
% Expression induction ([2]; COL27A1 (Collagen, type-XXVII, alpha 1)): 14.2%
% Expression induction ([2]; GSN (Gelsolin)): 30.1%
% Expression induction ([2]; ITGB1 (Integrin, beta 1)): 33.0%
% Expression induction ([2]; PCOLCE (Procollagen C-endopeptidase enhancer)): 22.4%
% Expression induction ([2]; PFN1 (Profilin 1)): 36.8%
% Expression induction ([2]; PLOD3 (Procollagen-lysine, 2-oxoglutarate 5-dioxygenase 3)): 20.7%
% Expression induction ([2]; ROCK1 (Rho-associated, coiled-coil containing protein kinase 1)): 22.7%
% Expression induction ([2]; SERPINH1 (heat shock protein 47)): 25.3%
% Expression induction ([2]; TLN1 (Talin 1)): 27.5%
% Expression induction ([2]; VCL (Vinculin)): 4.2%
% Expression induction ([2]; ZYX (Zyxin)): 35.7%
